Assay [1] addresses T1, FAP-expressing human WI-38 fibroblasts (Homo sapiens, UniProt Q12884).
T1 construct: FAP-expressing human WI-38 fibroblasts (ECACC) were cultured in EMEM; host or cells: WI-38 human fibroblasts
T1 sequence (Q12884 1-760): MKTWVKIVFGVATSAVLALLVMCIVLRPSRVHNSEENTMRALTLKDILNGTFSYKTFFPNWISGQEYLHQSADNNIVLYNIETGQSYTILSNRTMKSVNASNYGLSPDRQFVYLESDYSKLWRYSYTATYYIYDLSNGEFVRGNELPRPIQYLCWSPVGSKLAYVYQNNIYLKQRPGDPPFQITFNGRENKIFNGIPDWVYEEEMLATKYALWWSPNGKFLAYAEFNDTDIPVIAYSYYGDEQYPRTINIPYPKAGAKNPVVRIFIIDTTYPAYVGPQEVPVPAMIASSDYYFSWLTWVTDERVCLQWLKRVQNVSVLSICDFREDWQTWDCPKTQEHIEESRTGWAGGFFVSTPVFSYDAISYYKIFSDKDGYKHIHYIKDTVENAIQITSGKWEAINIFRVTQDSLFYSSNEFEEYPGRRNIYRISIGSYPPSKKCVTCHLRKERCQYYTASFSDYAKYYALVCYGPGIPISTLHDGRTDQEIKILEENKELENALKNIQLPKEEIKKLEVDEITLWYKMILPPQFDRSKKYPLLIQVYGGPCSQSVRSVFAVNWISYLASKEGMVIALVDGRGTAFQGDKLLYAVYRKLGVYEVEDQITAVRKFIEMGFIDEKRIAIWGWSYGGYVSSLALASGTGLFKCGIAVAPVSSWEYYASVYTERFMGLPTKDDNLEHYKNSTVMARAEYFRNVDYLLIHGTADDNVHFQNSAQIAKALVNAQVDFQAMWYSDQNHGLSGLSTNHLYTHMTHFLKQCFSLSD
The assay can be described thus: Competitive FACS binding assay. The note with it: pIC50 Category (FACS), competition with 3 nM Cy5-labeled compound, WI-38 fibroblasts, 4° C., 1 hour. The method, then:
Cells were analyzed in an Attune NxT flow cytometer. […]

For another assay, the target named is T2, Human recombinant FAP (Homo sapiens, UniProt Q12884).
T2 sequence (Q12884 1-760): T1 sequence (Q12884 1-760)
Briefly: FRET-based FAP protease activity assay. In kind it is biochemical. Set-up: purchased R&D systems 3715-SE. The note with it: pIC50 Category (Activity), recombinant human FAP, FRET substrate, 37° C.

Numbered stars: 1 amine (or outer) side, 2 acyl side, 3 side chain; on linkers, the order of the positions; unused ones are H or OH. Bridge positions count the residues as written; N and C are the ends. Square brackets hold non-standard residues; d marks the D form. Peptide text beside a SMILES is read from it. * marks the point of attachment. DOTA = O=C(O)CN1CCN(CC(=O)O)CCN(CC(=O)*)CCN(CC(=O)O)CC1; mXylylene = c1cc(C[*:1])cc(C[*:2])c1; 3Pal = N[C@@H](Cc1cccnc1)C(=O)O; 2Thi = N[C@@H](Cc1cccs1)C(=O)O

In the case of `C[C@@H](O)[C@@H]1NC(=O)[C@@H]2CCCN2C(=O)[C@@H]2CCCN2C(=O)[C@@H](NC(=O)CN2CCN(CC(=O)O)CCN(CC(=O)O)CCN(CC(=O)O)CC2)CSCc2cccc(c2)CSC[C@@H](C(=O)N[C@@H](CC(=O)O)C(=O)N[C@@H](Cc2c[nH]cn2)C(=O)N[C@@H](Cc2ccccc2)C(=O)N[C@@H](CCCNC(=N)N)C(=O)N[C@@H](CC(=O)O)C(N)=O)NC(=O)[C@H](Cc2ccccc2)NC(=O)[C@H](CCC(=O)O)NC1=O` [3BP-3174, DOTA-[Cys(3MeBn)-Pro-Pro-Thr-Glu-Phe-Cys]-Asp-His-Phe-Arg-Asp-NH2] ({DOTA}-CPPTEFCDHFRD-NH2; linker 1-7 via mXylylene), the IC50 (in assay [1]; on Human recombinant FAP) was 100 to 794 nM each time.
`CSCC[C@H](NC(C)=O)C(=O)N[C@H]1CSCc2cccc(c2)CSC[C@@H](C(=O)N[C@@H](CC(=O)O)C(=O)N[C@@H](Cc2c[nH]cn2)C(=O)N[C@@H](Cc2ccccc2)C(=O)N[C@@H](CCCNC(=N)N)C(=O)N[C@@H](CC(=O)O)C(N)=O)NC(=O)[C@H](Cc2ccccc2)NC(=O)[C@H](CCC(=O)O)NC(=O)[C@H]([C@@H](C)O)NC(=O)[C@@H]2CCCN2C(=O)[C@H]2CCCN2C1=O` [3BP-3176, Ac-Met-[Cys(3MeBn)-pro-Pro-Thr-Glu-Phe-Cys]-Asp-His-Phe-Arg-Asp-NH2] (Ac-MC[dP]PTEFCDHFRD-NH2; linker 2-8 via mXylylene): the IC50 (in assay [1]; at Human recombinant FAP) was 100 to 794 nM each time.
As for `CSCC[C@H](NC(C)=O)C(=O)N[C@H]1CSCc2cccc(c2)CSC[C@@H](C(=O)N[C@@H](CC(=O)O)C(=O)N[C@@H](Cc2c[nH]cn2)C(=O)N[C@@H](Cc2ccccc2)C(=O)N[C@@H](CCCNC(=N)N)C(=O)N[C@@H](CC(=O)O)C(N)=O)NC(=O)[C@H](Cc2ccccc2)NC(=O)[C@H](CCC(=O)O)NC(=O)[C@@H]([C@H](C)O)NC(=O)[C@@H]2CCCN2C(=O)[C@@H]2CCCN2C1=O` [3BP-3178, Ac-Met-[Cys(3MeBn)-Pro-Pro-thr-Glu-Phe-Cys]-Asp-His-Phe-Arg-Asp-NH2] (Ac-MCPP[dT]EFCDHFRD-NH2; linker 2-8 via mXylylene), the half-maximal inhibitory concentration (IC50) (in assay [1]; on Human recombinant FAP) was 10 to 79.4 nM throughout.
For `CSCC[C@H](NC(C)=O)C(=O)N[C@H]1CSCc2cccc(c2)CSC[C@@H](C(=O)N[C@@H](CC(=O)O)C(=O)N[C@@H](Cc2c[nH]cn2)C(=O)N[C@@H](Cc2ccccc2)C(=O)N[C@@H](CCCNC(=N)N)C(=O)N[C@@H](CC(=O)O)C(N)=O)NC(=O)[C@H](Cc2ccccc2)NC(=O)[C@@H](CCC(=O)O)NC(=O)[C@H]([C@@H](C)O)NC(=O)[C@@H]2CCCN2C(=O)[C@@H]2CCCN2C1=O` [3BP-3179, Ac-Met-[Cys(3MeBn)-Pro-Pro-Thr-glu-Phe-Cys]-Asp-His-Phe-Arg-Asp-NH2] (Ac-MCPPT[dE]FCDHFRD-NH2; linker 2-8 via mXylylene), the IC50 in assay [1] lay in the range of 10 to 79.4 nM; on Human recombinant FAP it was 100 to 794 nM.
For the compound `CSCC[C@H](NC(C)=O)C(=O)N[C@H]1CSCc2cccc(c2)CSC[C@@H](C(=O)N[C@@H](CC(=O)O)C(=O)N[C@@H](Cc2c[nH]cn2)C(=O)N[C@@H](Cc2ccccc2)C(=O)N[C@@H](CCCNC(=N)N)C(=O)N[C@@H](CC(=O)O)C(N)=O)NC(=O)[C@@H](Cc2ccccc2)NC(=O)[C@H](CCC(=O)O)NC(=O)[C@H]([C@@H](C)O)NC(=O)[C@@H]2CCCN2C(=O)[C@@H]2CCCN2C1=O` [3BP-3180, Ac-Met-[Cys(3MeBn)-Pro-Pro-Thr-Glu-phe-Cys]-Asp-His-Phe-Arg-Asp-NH2] (Ac-MCPPTE[dF]CDHFRD-NH2; linker 2-8 via mXylylene), the IC50 (in assay [1]; at Human recombinant FAP) was 100 to 794 nM each time.
On to `CSCC[C@H](NC(C)=O)C(=O)N[C@H]1CSCc2cccc(c2)CSC[C@H](C(=O)N[C@@H](CC(=O)O)C(=O)N[C@@H](Cc2c[nH]cn2)C(=O)N[C@@H](Cc2ccccc2)C(=O)N[C@@H](CCCNC(=N)N)C(=O)N[C@@H](CC(=O)O)C(N)=O)NC(=O)[C@H](Cc2ccccc2)NC(=O)[C@H](CCC(=O)O)NC(=O)[C@H]([C@@H](C)O)NC(=O)[C@@H]2CCCN2C(=O)[C@@H]2CCCN2C1=O` [3BP-3182, Ac-Met-[Cys(3MeBn)-Pro-Pro-Thr-Glu-Phe-cys]-Asp-His-Phe-Arg-Asp-NH2] (Ac-MCPPTEF[dC]DHFRD-NH2; linker 2-8 via mXylylene), for which the 50% inhibitory concentration (IC50) (in assay [1]; at Human recombinant FAP) was 10 to 79.4 nM each time.
With `CSCC[C@H](NC(C)=O)C(=O)N[C@H]1CSCc2cccc(c2)CSC[C@@H](C(=O)N[C@@H](CC(=O)O)C(=O)N[C@@H](Cc2c[nH]cn2)C(=O)N[C@@H](Cc2cccnc2)C(=O)N[C@@H](CCCNC(=N)N)C(=O)N[C@@H](CC(=O)O)C(N)=O)NC(=O)[C@H](Cc2ccccc2)NC(=O)[C@H](CCC(=O)O)NC(=O)[C@H]([C@@H](C)O)NC(=O)[C@@H]2CCCN2C(=O)[C@@H]2CCCN2C1=O` [3BP-3192, Ac-Met-[Cys(3MeBn)-Pro-Pro-Thr-Glu-Phe-Cys]-Asp-His-Mpa-Arg-Asp-NH2] (Ac-MCPPTEFCDH[3Pal]RD-NH2; linker 2-8 via mXylylene), the IC50 (in assay [1]; on Human recombinant FAP) was under 10 nM each time.
With `CSCC[C@H](NC(C)=O)C(=O)N[C@H]1CSCc2cccc(c2)CSC[C@@H](C(=O)N[C@@H](CC(=O)O)C(=O)N[C@@H](Cc2c[nH]cn2)C(=O)N[C@@H](Cc2cccs2)C(=O)N[C@@H](CCCNC(=N)N)C(=O)N[C@@H](CC(=O)O)C(N)=O)NC(=O)[C@H](Cc2ccccc2)NC(=O)[C@H](CCC(=O)O)NC(=O)[C@H]([C@@H](C)O)NC(=O)[C@@H]2CCCN2C(=O)[C@@H]2CCCN2C1=O` [3BP-3193, Ac-Met-[Cys(3MeBn)-Pro-Pro-Thr-Glu-Thi-Cys]-Asp-His-Phe-Arg-Asp-NH2] (Ac-MCPPTEFCDH[2Thi]RD-NH2; linker 2-8 via mXylylene), the IC50 (in assay [1]; on Human recombinant FAP) was under 10 nM in each case.
In the case of `CSCC[C@H](NC(C)=O)C(=O)N[C@H]1CSCc2cccc(c2)CSC[C@@H](C(=O)N[C@@H](C)C(=O)N[C@@H](Cc2c[nH]cn2)C(=O)N[C@@H](Cc2ccccc2)C(=O)N[C@@H](CCCNC(=N)N)C(=O)N[C@@H](CC(=O)O)C(N)=O)NC(=O)[C@H](Cc2ccccc2)NC(=O)[C@H](CCC(=O)O)NC(=O)[C@H]([C@@H](C)O)NC(=O)[C@@H]2CCCN2C(=O)[C@@H]2CCCN2C1=O` [3BP-3194, Ac-Met-[Cys(3MeBn)-Pro-Pro-Thr-Glu-Phe-Cys]-Ala-His-Phe-Arg-Asp-NH2] (Ac-MCPPTEFCAHFRD-NH2; linker 2-8 via mXylylene), the IC50 (in assay [1]; at Human recombinant FAP) was 10 to 79.4 nM each time.
In the case of `CSCC[C@H](NC(C)=O)C(=O)N[C@H]1CSCc2cccc(c2)CSC[C@@H](C(=O)N[C@@H](CC(=O)O)C(=O)N[C@@H](C)C(=O)N[C@@H](Cc2ccccc2)C(=O)N[C@@H](CCCNC(=N)N)C(=O)N[C@@H](CC(=O)O)C(N)=O)NC(=O)[C@H](Cc2ccccc2)NC(=O)[C@H](CCC(=O)O)NC(=O)[C@H]([C@@H](C)O)NC(=O)[C@@H]2CCCN2C(=O)[C@@H]2CCCN2C1=O` [3BP-3195, Ac-Met-[Cys(3MeBn)-Pro-Pro-Thr-Glu-Phe-Cys]-Asp-Ala-Phe-Arg-Asp-NH2] (Ac-MCPPTEFCDAFRD-NH2; linker 2-8 via mXylylene), the IC50 in assay [1] is under 10 nM; at Human recombinant FAP it was 10 to 79.4 nM.
`CSCC[C@H](NC(C)=O)C(=O)N[C@H]1CSCc2cccc(c2)CSC[C@@H](C(=O)N[C@@H](CC(=O)O)C(=O)N[C@@H](Cc2c[nH]cn2)C(=O)N[C@@H](Cc2ccccc2)C(=O)N[C@@H](C)C(=O)N[C@@H](CC(=O)O)C(N)=O)NC(=O)[C@H](Cc2ccccc2)NC(=O)[C@H](CCC(=O)O)NC(=O)[C@H]([C@@H](C)O)NC(=O)[C@@H]2CCCN2C(=O)[C@@H]2CCCN2C1=O` [3BP-3197, Ac-Met-[Cys(3MeBn)-Pro-Pro-Thr-Glu-Phe-Cys]-Asp-His-Phe-Ala-Asp-NH2] (Ac-MCPPTEFCDHFAD-NH2; linker 2-8 via mXylylene): the IC50 (in assay [1]; on Human recombinant FAP) was 100 to 794 nM in each case.
With `CSCC[C@H](NC(C)=O)C(=O)N[C@H]1CSCc2cccc(c2)CSC[C@@H](C(=O)N[C@@H](CC(=O)O)C(=O)N[C@@H](Cc2c[nH]cn2)C(=O)N[C@@H](Cc2ccccc2)C(=O)N[C@@H](CCCNC(=N)N)C(=O)N[C@@H](C)C(N)=O)NC(=O)[C@H](Cc2ccccc2)NC(=O)[C@H](CCC(=O)O)NC(=O)[C@H]([C@@H](C)O)NC(=O)[C@@H]2CCCN2C(=O)[C@@H]2CCCN2C1=O` [3BP-3198, Ac-Met-[Cys(3MeBn)-Pro-Pro-Thr-Glu-Phe-Cys]-Asp-His-Phe-Arg-Ala-NH2] (Ac-MCPPTEFCDHFRA-NH2; linker 2-8 via mXylylene), the IC50 (in assay [1]; on Human recombinant FAP) was under 10 nM throughout.

Source of the values: US20220315554A1, “COMPOUNDS COMPRISING A […] LIGAND AND USE THEREOF” (priority 2019, published 2022).
